This is an account of results in article PMC6286348, “Inhibitor binding mode and allosteric regulation of Na^+-glucose symporters” (Nature Communications, 2018).

Numbering of substitutions follows the chain as printed.

Assay [1] has as its target T1, hSGLT2 A395T (Homo sapiens, UniProt P31639, A395T).
T1 construct: expressed in transfected cells; host or cells: Xenopus laevis oocytes injected with hSGLT2 A395T cRNA and MAP17 cRNA
Description: cell-based. Particulars: poor expression; n = 3 oocytes (n = 2 for dapa-aglycon). Here is the method: (§1) Xenopus laevis (Nasco) oocytes (V–VI) were prepared as previously described[20] and injected with 50 nl of cRNA (1 μg/μl). […] Briefly, oocytes were incubated for 30 min in the presence of 50 μM αMDG (5 μM [^14C]αMDG) in a buffer containing (in mM) 100 NaCl, 2 KCl, 1 MgCl2, 1 CaCl2, and 10 N-(2-hydroxyethyl)piperazine-N′-(2-ethanesulfonic acid) (HEPES)/Tris (pH 7.5). After incubation, oocytes were rinsed thoroughly with ice-cold buffer containing (mM) 100 choline Cl^–, 2 KCl, 1 MgCl2, 1 CaCl2, and 10 HEPES/Tris (pH 7.5), individually lysed with 5% sodium dodecyl sulfate, and assayed for radioactivity.
(§2) Injected oocytes were incubated at 18 °C, and after 3–4 days, two electrode voltage clamp experiments were performed as previously described. Briefly, SGLT inward glucose currents were measured as a function of the external Na^+ (0–100 mM NaCl), sugar (0–100 mM αMDG), and inhibitors (0.001–100 μM). Steady-state and hSGLT1 capacitive currents were recorded using voltage steps from a holding voltage, Vh of −60 mV, to voltages in the range of −180 to +50 mV in 20 mV increments. The apparent affinity of αMDG, K0.5, was estimated from plots of the inward current as a function of the external αMDG concentration. Under our experimental conditions, K0.5 is a close approximation of the αMDG binding constant to the Na^+-bound outward conformation of SGLT. The apparent affinity for Na^+, K0.5, was estimated from plots of the αMDG inward current as a function of external Na^+ concentration. For hSGLT1 the interpretation of K0.5 is more complex owing to the presence of two Na^+ binding sites. In this case, the K0.5 is a lumped coefficient for Na^+ binding to the two sites in the outward-facing hSGLT1 conformation. […] The Na^+-to-αMDG stoichiometry was determined from the reversal potential measurements using the Gibbs free energy as previously described. The stoichiometry determinations were reinforced by estimates of αMDG and Na^+ Hill coefficients, and in some cases, by measurement of ^22Na and [^14C]αMDG uptakes under voltage clamp, [21].

Assay [2] concerns the target T2, hSGLT2 wild-type (Homo sapiens, UniProt P31639).
T2 sequence (P31639 1-672): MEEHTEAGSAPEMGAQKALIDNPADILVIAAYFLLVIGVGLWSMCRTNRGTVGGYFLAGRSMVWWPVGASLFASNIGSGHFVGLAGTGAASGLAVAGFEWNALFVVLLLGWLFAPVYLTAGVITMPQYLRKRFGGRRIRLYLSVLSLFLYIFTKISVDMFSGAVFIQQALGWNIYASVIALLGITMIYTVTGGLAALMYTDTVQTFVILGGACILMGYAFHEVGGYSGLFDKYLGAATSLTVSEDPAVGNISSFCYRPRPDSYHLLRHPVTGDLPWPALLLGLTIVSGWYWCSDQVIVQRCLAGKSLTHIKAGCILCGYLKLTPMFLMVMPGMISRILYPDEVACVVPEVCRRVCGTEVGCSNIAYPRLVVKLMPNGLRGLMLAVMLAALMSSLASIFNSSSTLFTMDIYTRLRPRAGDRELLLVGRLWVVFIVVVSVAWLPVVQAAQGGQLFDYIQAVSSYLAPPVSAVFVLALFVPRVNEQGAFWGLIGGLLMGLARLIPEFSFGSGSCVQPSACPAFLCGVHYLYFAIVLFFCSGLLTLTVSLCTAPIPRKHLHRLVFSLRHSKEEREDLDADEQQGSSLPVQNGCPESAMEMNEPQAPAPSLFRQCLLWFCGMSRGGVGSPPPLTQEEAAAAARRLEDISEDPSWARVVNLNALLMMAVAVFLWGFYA
T2 sequence (Q13113 1-114 partner): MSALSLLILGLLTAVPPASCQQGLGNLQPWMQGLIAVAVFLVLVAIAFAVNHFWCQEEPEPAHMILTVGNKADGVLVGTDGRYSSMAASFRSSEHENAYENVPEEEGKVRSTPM
Description: SGLT current measurement in oocytes, hSGLT2 wild-type (MAP17 co-injected). It is filed as cell-based. Further details: expressed in transfected cells; host or cells: Xenopus laevis oocytes injected with hSGLT2 cRNA and MAP17 cRNA. Particulars: 22 °C. Here is the method:
as §1, §2

In assay [3] the target is T3, hSGLT1 T395A (Homo sapiens, UniProt P13866, T395A).
T3 construct: expressed in transfected cells; host or cells: Xenopus laevis oocytes injected with cRNA
T3 sequence (P13866 1-664 T395A): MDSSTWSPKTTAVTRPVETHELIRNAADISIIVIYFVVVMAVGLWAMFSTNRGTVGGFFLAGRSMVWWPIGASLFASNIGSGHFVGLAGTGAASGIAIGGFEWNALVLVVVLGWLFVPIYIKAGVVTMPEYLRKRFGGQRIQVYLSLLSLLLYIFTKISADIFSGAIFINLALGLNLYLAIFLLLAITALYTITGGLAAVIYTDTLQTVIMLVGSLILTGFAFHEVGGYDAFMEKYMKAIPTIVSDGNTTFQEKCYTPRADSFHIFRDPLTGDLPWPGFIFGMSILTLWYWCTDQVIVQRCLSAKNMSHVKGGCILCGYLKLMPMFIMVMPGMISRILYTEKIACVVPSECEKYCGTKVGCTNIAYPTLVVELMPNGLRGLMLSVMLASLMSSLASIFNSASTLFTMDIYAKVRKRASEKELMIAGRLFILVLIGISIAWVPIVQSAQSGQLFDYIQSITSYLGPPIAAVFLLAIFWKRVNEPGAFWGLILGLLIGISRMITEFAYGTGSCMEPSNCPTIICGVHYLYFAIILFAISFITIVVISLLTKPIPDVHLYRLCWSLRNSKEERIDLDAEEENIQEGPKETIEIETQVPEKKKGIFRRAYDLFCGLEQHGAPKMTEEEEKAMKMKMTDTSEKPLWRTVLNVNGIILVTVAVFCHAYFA
Description: SGLT current measurement in oocytes, hSGLT1 T395A. Particulars: effect on αMDG currents in 30 mM αMDG, 22 °C. It is filed as cell-based. As for the experimental part: as §1
(§3) Injected oocytes were incubated at 18 °C, and after 3–4 days, two electrode voltage clamp experiments were performed as previously described. Briefly, SGLT inward glucose currents were measured as a function of the external Na^+ (0–100 mM NaCl), sugar (0–100 mM αMDG), and inhibitors (0.001–100 μM). Steady-state and hSGLT1 capacitive currents were recorded using voltage steps from a holding voltage, Vh of −60 mV, to voltages in the range of −180 to +50 mV in 20 mV increments. The apparent affinity of αMDG, K0.5, was estimated from plots of the inward current as a function of the external αMDG concentration. […] The Na^+-to-αMDG stoichiometry was determined from the reversal potential measurements using the Gibbs free energy as previously described. […]

In assay [4] the target is T4, hSGLT1 wild-type (Homo sapiens, UniProt P13866).
T4 construct: expressed in transfected cells; host or cells: Xenopus laevis oocytes injected with cRNA
T4 sequence (P13866 1-664): T3 sequence (P13866 1-664 T395A) with A395T
Description: SGLT current measurement (two electrode voltage clamp) in oocytes, hSGLT1 wild-type. It is filed as cell-based. To be noted: inhibition of αMDG currents (100 mM NaCl) or capacitive currents, 22 °C. Here is the method:
as §1, §3

Assay [5] concerns the target T2, hSGLT2 wild-type. To be noted: cited from earlier work.
For assay [6], the target named is T5, hSGLT1 D268H (Homo sapiens, UniProt P13866, D268H).
T5 construct: expressed in transfected cells; host or cells: Xenopus laevis oocytes injected with cRNA
T5 sequence (P13866 1-664 D268H): T3 sequence (P13866 1-664 T395A) with D268H, A395T
Description: SGLT current measurement in oocytes, hSGLT1 D268H. It is filed as cell-based. To be noted: D268H vs wild type. Here is the method: as §1, §3

T1 sequence (P31639 whole entry A395T, one chain of several): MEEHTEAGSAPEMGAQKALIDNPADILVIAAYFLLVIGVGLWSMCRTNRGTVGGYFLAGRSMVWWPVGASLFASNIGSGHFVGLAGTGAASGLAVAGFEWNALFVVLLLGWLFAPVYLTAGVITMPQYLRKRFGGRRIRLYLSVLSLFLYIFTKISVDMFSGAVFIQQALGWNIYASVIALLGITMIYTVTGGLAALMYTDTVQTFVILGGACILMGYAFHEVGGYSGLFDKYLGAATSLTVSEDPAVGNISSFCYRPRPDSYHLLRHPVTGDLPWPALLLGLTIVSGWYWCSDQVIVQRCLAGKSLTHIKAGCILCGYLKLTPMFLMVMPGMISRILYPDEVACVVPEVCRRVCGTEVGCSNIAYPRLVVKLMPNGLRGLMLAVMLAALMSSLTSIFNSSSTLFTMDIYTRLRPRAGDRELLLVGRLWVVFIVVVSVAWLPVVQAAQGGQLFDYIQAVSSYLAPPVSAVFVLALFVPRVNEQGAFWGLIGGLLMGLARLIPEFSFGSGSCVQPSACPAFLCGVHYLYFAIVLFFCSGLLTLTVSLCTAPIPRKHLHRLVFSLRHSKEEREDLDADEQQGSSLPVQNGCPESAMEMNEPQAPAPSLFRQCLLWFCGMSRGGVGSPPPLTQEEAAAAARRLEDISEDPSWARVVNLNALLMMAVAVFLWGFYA

On to `CCOc1ccc(Cc2cc(O)ccc2Cl)cc1` [dapa-aglycon], for which the Ki is above 600 µM in assay [1], 110 ± 30 µM in assay [2], 187 ± 80 µM in assay [3] and 425 ± 50 µM in assay [4].

As to `CCOc1ccc(Cc2cc([C@@H]3O[C@H](CO)[C@@H](O)[C@H](O)[C@H]3O)ccc2Cl)cc1` [dapagliflozin], the “higher potency for hSGLT2 (vs hSGLT1)” value in assay [5] is recorded as above 100 fold. In addition, the “decrease of Ki vs wild-type hSGLT1” value in assay [6] was 13 fold.

In the case of `O=C(CCc1ccc(O)cc1)c1c(O)cc(O)cc1O` [phloretin], the Ki was 129 ± 70 µM in assay [1] and 27 ± 3 µM in assay [2].

The term Ki denotes the dissociation constant of the complex between target and ligand, obtained from inhibition or displacement. Higher therefore signals a looser hold on the target.
